One series concerns PTZ-induced seizures. Description: PTZ (pentylenetetrazole)-induced model of generalised seizures. The format is in vivo, rat.
The test system of series [1] is pilocarpine-induced seizures. Nature of the series: Pilocarpine-induced model of temporal lobe seizures. It is filed as in vivo, rat. The settings on record: pilocarpine 380 mg/kg. The procedure:
Pure THCV was injected intra-peritoneally (IP) in the standard vehicle (1:1:18 ethanol:Cremophor:0.9% w/v NaCl) at doses of 0.025, 0.25 and 2.5 mg/kg alongside animals that received vehicle alone at a matched volume (n≧14 for each group). 15 minutes later methylscopolamine (1 mg/kg; to reduce peripheral muscarinic effects of pilocarpine) was administered followed, 45 minutes later by pilocarpine (380 mg/kg, IP) administration.
Pure CBD was injected intra-peritoneally (IP) in the standard vehicle (1:1:18 ethanol:Cremophor:0.9% w/v NaCl) at doses of 1, 10 and 100 mg/kg alongside animals that received vehicle alone at a matched volume (n≧14 for each group). 15 minutes later methylscopolamine (1 mg/kg; to reduce peripheral muscarinic effects of pilocarpine) was administered followed, 45 minutes later by pilocarpine (380 mg/kg, IP) administration.

Series [2] concerns penicillin-induced seizures. Nature of the series: Penicillin-induced model of partial seizures. It is filed as in vivo, rat. The settings on record: for development of the most severe seizures (tonic-clonic seizures without postural control): 150 IU penicillin. How it is done:
CBD (1, 10 and 100 mg/kg) or CBD vehicle (1:1:18 ethanol:Cremophor: 0.9% w/v NaCl) was administered i.p. to adult male Wistar rats (>250 g). One week prior to this, animals had been surgically implanted with a cannula into the right lateral ventricle under anaesthesia. One hour after CBD administration, 150 IU penicillin was infused into the right lateral ventricle in 1.5 μl saline solution over one minute and seizure behaviour video recorded for two hours.
Following detailed examination of animal responses to penicillin alone (using data obtained from vehicle control groups, a finalised seizure scoring scale for penicillin-induced partial seizures has been derived. The following scoring system which was derived from several existing and published scoring systems for this model, will therefore be used for analysis of drug effects upon such seizures.

The subject of series [3] is seizures in institutionalized children. The settings on record: 5 institutionalized children not responding to phenobarbital and phenytoin; cited from earlier work.

`C=C(C)[C@@H]1CCC(C)=C[C@H]1c1c(O)cc(CCCCC)cc1O` [CBD, cannabidiol]: the “animals that died (mortality)” value with PTZ-induced seizures (100 mg/kg CBD IP, 60 minutes before 80 mg/kg PTZ, p<0.001 vs vehicle) stood at 6.7%. For the same molecule, the “percentage mortality vs control” value in series [1] (10 mg/kg CBD) is “significant increase”. In addition, in series [1] (CBD 1 mg/kg and 100 mg/kg), the “percentage duration of time spent in a tonic-clonic state compared to the total duration of the seizure period” value is given as “significantly reduced” and the “percentage of animals exhibiting tonic-clonic seizures” value was “significantly reduced”. The “mean frequency of all other seizure scores” value in series [1] (CBD 1, 10, 100 mg/kg vs control) is on record as “no significant differences”. For the same molecule, the mean tonic-clonic frequency entry in series [1] (CBD all doses tested (1, 10, 100 mg/kg)) was “significant reduction”. Further, in series [1] (CBD doses >1 mg/kg), the “percentage of animals manifesting with bilateral forelimb clonus with rearing and falling” value is listed as “significantly reduces”; the “percentage of animals showing unilateral forelimb clonus” value is recorded as “significant decreases”. The “latency to the onset of seizure” value in series [1] (pure CBD 1, 10, 100 mg/kg IP) is on record as “No significant effect”. Moreover, in series [1] (pure CBD 1, 10, 100 mg/kg), the “mean maximum severity of seizure” value is on record as “no effect” and the “percentage of animals exhibiting bilateral forelimb clonus” value is listed as “no significant differences”. For the same molecule, the “frequency with which animals experienced the most severe seizures” value in series [2] (10 mg/kg CBD vs vehicle, p=0.071) was “near-significant effect”. Further, the “development of the most severe seizures (tonic-clonic seizures without postural control)” value in series [2] (100 mg/kg CBD i.p., p=0.001) was “completely prevented development”. The “frequency with which animals experienced the most severe seizures” value in series [2] (100 mg/kg CBD vs vehicle, p=0.006) is “significant decrease”. For the same molecule, in series [2] (100 mg/kg CBD vs vehicle, p=0.012), the “median severity of penicillin-induced seizures” value is recorded as “significantly reduced”. In addition, the “mortality compared to vehicle” value in series [2] (100 mg/kg CBD, p=0.057) is “near-significant effect”. Moreover, the “development of the most severe seizures (tonic-clonic seizures without postural control)” value in series [2] (1 and 10 mg/kg CBD i.p., p=0.076 for both) is given as “Near-significant decreases”. Besides, the “proportion of animals that remained seizure-free” value in series [2] (all doses of CBD (1, 10 and 100 mg/kg), p<0.001) is on record as “significantly increased”.

On to `CCCCCc1cc(O)c2c(c1)OC(C)(C)[C@@H]1CCC(C)=C[C@@H]21` [THC, tetrahydrocanibinol], for which the seizure outcome in series [3] is “One became entirely free of seizures, one became almost completely free of seizures, and the other three did no worse than before”.

As for `CCCc1cc(O)c2c(c1)OC(C)(C)[C@@H]1CCC(C)=C[C@@H]21` [THCV, tetrahydrocannabivarin], the “latency to first manifestation of seizure-like behaviour” value with PTZ-induced seizures (pure THCV 0.025, 0.25, 2.5 mg/kg vs vehicle, 80 mg/kg PTZ) was “increased latency”. The “latency to score of [5]” value in the series with PTZ-induced seizures (pure THCV all doses, 80 mg/kg PTZ, p=0.013 at highest dose) was “increased latencies, reaching a significant level at the highest dose of THCV”. In addition, the “latency to score of [3]” value in the series with PTZ-induced seizures (pure THCV all doses, 80 mg/kg PTZ, p=0.017 at highest dose) is recorded as “increased latencies, reaching a significant level at the highest dose of THCV”. Also, the “delay of seizure onset (latency to first seizure sign)” value with PTZ-induced seizures (pure THCV highest dose 2.5 mg/kg, 80 mg/kg PTZ, p=0.02) is given as “delay of onset was significant”. Moreover, in the series on PTZ-induced seizures (pure THCV medium dose 0.25 mg/kg vs vehicle, 80 mg/kg PTZ, p=0.03), the “duration of PTZ-induced seizures in animals that survived” value was “significantly shorter”. Further, the “percentage of animals showing bilateral forelimb clonus with rearing and falling” value in series [1] (0.25 mg/kg THCV) was “significant increase”. Besides, the “percentage of animals showing bilateral forelimb clonus with rearing and falling” value in series [1] (THCV doses other than 0.25 mg/kg (0.025, 2.5 mg/kg)) is given as “this effect was not seen at any other dose”. Besides, the “latency to the onset of seizure” value in series [1] (pure THCV 0.025, 0.25, 2.5 mg/kg IP) is given as “No significant effect”. The “mean maximum severity of seizure” value in series [1] (pure THCV 0.025, 0.25, 2.5 mg/kg) is reported as “no effect”. Besides, in series [1] (pure THCV any dose), the “percentage mortality vs control” value is given as “No significant change”, the “percentage of animals showing bilateral forelimb clonus” value was “no significant changes”, the “percentage of animals showing tonic-clonic seizures” value was “no significant changes” and the “percentage of animals showing unilateral forelimb clonus” value is given as “no significant changes”.

These data come from patent publication US9522123B2, “Use of one or a combination of phyto-cannabinoids in the treatment of epilepsy” (GW Pharma Limited, priority 2009, dated 2016).
